Drawing on a melting point compilation (Tetko et al.; mined from patent text by program, amines drawn as free bases though some values may be those of a salt), this text covers melting point for 63 molecules.

As for `Cn1nc2c(-c3ccc(Cl)cc3Cl)cccc2c1C(=O)c1ncn[nH]1`, the melting point was 284 to 285 °C.

`Nc1nc(-c2cc(Cl)ccc2Cl)nc(N2CCOCC2)n1` had a melting point of 189 to 191 °C. The same measure for `COc1cccc(CNC(=O)c2cc3ccccc3c(=O)[nH]2)c1`: 206 to 210 °C; for `CCc1noc(-c2cn(-c3cccc(OC)c3)cn2)n1`: 89 to 90 °C. Molecule `O=C(O)C1=C(c2ccccc2)c2cc(Cl)ccc2OC1CC(F)(F)F` (stereo not drawn) gave a melting point of 226 to 227 °C. Turning to `O=Cc1ccc2c(c1)COC2=O`, the melting point turned out to be 160 °C. Molecule `Cc1ncc([N+](=O)[O-])cc1C(=O)NCCO` came in with a melting point of 144 to 145 °C. For `CCOC(=O)c1cccc2nc(OCC)n(Cc3ccc(-c4ccccc4-c4nnn[nH]4)cc3)c12` the value was 158 to 159 °C; for `CC(=O)C1=CCC2C3CCC4CC(O)CCC4(C)C3C(=O)CC12C` (stereo not drawn), 218 °C; for `O=CNC1=NN(c2ccccc2)CC1`, 140 to 141 °C. For `O=c1ccc(C(c2ccc(Cl)cc2)c2ccc(Cl)cc2)c[nH]1` the value was 211 to 215 °C; for `COc1cc2cc3c(Nc4ccc(Sc5nccn5C)c(Cl)c4)c(C#N)cnc3cc2cc1OCCCCl`, over 300 °C. For `CCCC(N(NC(=O)OC(C)(C)C)C(=O)c1cc(C)cc(C)c1)C(C)(C)C` (stereo not drawn) the value was 116 to 118 °C; for `CCc1cnc(NC(=O)C(c2ccccc2)c2ccccc2)o1`, 148 to 149 °C.

On to `CC1(C)CCSc2ccc(Br)cc21`, for which the melting point came to 51 °C.

Molecule `Cn1cc(C2=C(c3cn(C)c4ccccc34)C(=O)NC2=O)c2ccccc21` showed a melting point of over 300 °C. For `O=Cc1ccc2ccn(C3CCN(CCc4ccccc4F)CC3)c2c1` the value was 130 to 131 °C; for `O=[N+]([O-])c1cc2nc(O)c(O)nc2c2nonc12`, over 300 °C; for `O=C(c1ccc(O)cc1)c1c(-c2ccc(O)cc2)sc2ccccc12`, 90 °C. The same measure for `O=C(O)CCCOc1ccccc1OCc1ccccc1`: 75 to 76 °C; for `N#Cc1nn(-c2c(Cl)cc(-c3c(F)c(F)nc(F)c3F)cc2Cl)c(N)c1SC(F)(F)F`: 100 to 104 °C; for `Cn1nnc(-c2ccc3c(c2)c(C2=CCN(CCc4nnn[nH]4)CC2)cn3-c2ccc(F)cc2)n1`: 131 to 132 °C. The same measure for `Clc1cccc(N2CCN(Cc3cn4cc(Cl)ccc4n3)CC2)c1`: 148 to 149 °C; for `O=C(N[C@@H](CSC(=O)c1ccccc1)C(=O)O)c1ccccc1`: 183 to 185 °C; for `COCCN(CCOC)C(=O)c1ccc([N+](=O)[O-])cc1[N+](=O)[O-]`: 89 °C.

For `CCOC(=O)CCc1cc(OC)ccc1C(=O)CCCNC(C)=O`, the melting point lay in the range of 59 to 61 °C.

In the case of `CC(C)(C)C1c2ccccc2-c2cc(Br)ccc2N1S(=O)(=O)c1ccc(O)cc1` (stereo not drawn), the melting point lay in the range of 245 to 247 °C. For `O=C1C2=CC=CCC2C(O)N1CCN1CCC(c2noc3cc(F)ccc23)CC1` (stereo not drawn) the value was 172 to 173 °C; for `CC(C)(C)CC(=O)N1CCC(c2ccc(COc3ccc(S(C)(=O)=O)cc3)nc2)CC1`, 140 to 142 °C. The same measure for `Oc1ccccc1-c1nc(-c2ccccc2O)n(Cc2ccccc2)n1`: 166 to 168 °C; for `CC(=O)c1c(-c2ccncc2)[nH]c(-c2ccccc2)c1C`: 208 to 209 °C. Molecule `CC(CCCCc1ccccc1)c1cc(O)c2c(c1)OC(C)(C)C1CCC(=O)C=C21` (stereo not drawn) had a melting point of 204 to 208 °C. For `C=CCn1c(NC=O)nc(N2CCc3ccccc3CC2)c(C#N)c1=O` the value was over 200 °C.

Molecule `COc1ccc(-c2n[nH]cc2C(=O)N2CCOCC2)cc1OC` returned a melting point of 122 °C. The same measure for `CCOC(=O)Cc1ccc(-c2nc(COc3ccc(C=O)cc3OC)c(C)o2)cc1`: 151 to 152 °C. The molecule `CCOC(=O)c1c(-c2cccc(Cl)c2)c2cc(C(O)c3nc(-c4ccccc4)cs3)ccc2[nH]c1=O` (stereo not drawn) had a melting point of 127 °C.

In turn, `O=C(O)/C=C/c1ccc(N2CCC(=O)CC2)cc1` registered a melting point of 215 °C. For `CC(=NO)C(C)(C)NCC(C)CNC(C)(C)C(Cn1ccnc1[N+](=O)[O-])=NO` (stereo not drawn) the value was 167 to 168 °C. `CCS(=O)(=O)N(Cc1cccnc1)c1ccc(Cl)cc1` gave a melting point of 104 to 106 °C.

`CC(C)Cn1c(C(F)(F)F)nc2cc(F)c(-n3c(=O)cc(C(F)(F)F)n(C)c3=O)cc21` yielded a melting point of 169 to 170 °C.

With `O=C1CCC(N2C(=O)c3cccc(CNC(=O)Nc4ccccn4)c3C2=O)C(=O)N1` (stereo not drawn), the melting point was over 260 °C. The same measure for `CCCCCS(=O)(=O)NC(=O)/C=C/c1ccc(Oc2ncccn2)cc1Oc1ncc(C(F)(F)F)cc1Cl`: 80.5 to 82.5 °C; for `Cc1nn(C)c(C)c1NC1=NCCO1`: 131 to 132 °C. The same measure for `CC1(C)OCC(C(N)=O)CO1`: 132 to 134 °C; for `Clc1cccc(-c2nc3ccccc3n2-c2ccccc2)c1`: 107 to 109 °C. For `CC(C)(CO)Nc1nc2c(s1)CCc1cc(C#N)ccc1-2` the value was 121 to 123 °C.

In turn, `O=C1CC2(CCCCC2Cc2ccccc2)SCCN1` (stereo not drawn) gave a melting point of 130 to 135 °C. Take `CN(C)CCCN1C(=O)C(NC(=O)Nc2ccccc2)C(=O)N(CC23CC4CC(CC(C4)C2)C3)c2ccccc21` (stereo not drawn): the melting point lay in the range of 138 to 140 °C. The same measure for `CC(O)CNCc1nc2cc(-c3ccccc3)nnc2c2ccccc12` (stereo not drawn): 161 to 162 °C. `CCOc1cc(CN2CCc3cc(O)ccc3C2)cc(OCC)c1OCC` displayed a melting point of 140 to 142 °C. For `CC1CC(c2ccc(OCC(=O)O)c(Cl)c2Cl)=CC(=O)C1C` (stereo not drawn) the value was 151 to 153 °C.

In turn, `Clc1ccc2ccc(COc3cccc(CN4CCc5cccc(CCc6nnn[nH]6)c54)c3)nc2c1` came in with a melting point of 137 to 140 °C.

Molecule `Cc1cccc(C2=CCN(CCCn3c(=O)[nH]c4cccc(C)c4c3=O)CC2)n1` showed a melting point of 200 to 203 °C. For `COc1ccc(C2(CNC(=O)Nc3c(C(C)C)cccc3C(C)C)CCCC2)cc1` the value was 144 to 147 °C; for `CC(C)(C)ON=C1CCC(NC(=O)Oc2ccc([N+](=O)[O-])cc2)CC1` (stereo not drawn), 132 °C; for `FCCOc1cccc(CBr)c1OCCF`, 99 to 100 °C. The same measure for `O=C(C(=O)N1CCC(Oc2cccc(Cl)c2)CC1)c1c[nH]c2ccccc12`: 145 to 147 °C.

For the molecule `O=C(O)C1(c2cn3nc(NCCCN4CCC(OC(c5ccccc5)c5ccccc5)CC4)ccc3n2)CC1`, the melting point fell in the range of 115 to 117 °C. For `Fc1ccccc1-c1noc2c(Cl)c(OCc3nnn[nH]3)ccc12` the value was 198 to 200 °C; for `COc1ccccc1CP(CCP(Cc1ccccc1OC)c1ccccc1)c1ccccc1` (stereo not drawn), 102 to 104 °C. The same measure for `Fc1ccc([C@H]2CC[C@H](N3CCC(Cc4cc(F)ccc4F)CC3)CC2)cc1`: 80 to 81 °C.

`O=c1cc2c(nn1-c1ccc(Cl)cc1)-c1cc(Cl)ccc1SCC2` registered a melting point of 215 to 217 °C.

`Nc1cc(C(F)(F)F)on1`: the melting point was in the range of 44 to 45 °C.

By melting point is commonly meant the temperature, or range, at which the solid turns liquid.
